The text below walks through data of patent US10519098B2, “Aromatic derivatives as anti-malarial” (Council of Scientific & Industrial Research, priority 2014, dated 2019).

For data set [1], the system named is Chloroquine-sensitive (3D7) strain of P. falciparum. Nature of the data set: Malaria SYBR Green I-based fluorescence (MSF) assay, 3D7 strain. The format is cell-based. As to conditions: Plasmodium falciparum.
Data set [2] relates to Chloroquine-resistant (K1) strain of P. falciparum. As to the kind of experiment: Malaria SYBR Green I-based fluorescence (MSF) assay, K1 strain. The format is cell-based. As to conditions: Plasmodium falciparum.
Data set [3] is described as follows: in vitro. To be noted: monkey. How it is done: The cells were incubated with test sample dilutions for 72 h and MTT was used as reagent for detection of cytotoxicity. Podophyllotoxin (SIGMA) was used as the standard reference drug.
Data set [4] has as its system chloroquine resistant P. yoelii (N-67). Nature of the data set: In vivo evaluation in P. yoelii (N-67) Swiss mice model. To be noted: 100 mg/kg intraperitoneal, four doses day 0-3 once daily; one value per mouse. How it is done:
The molecules were tested at 100 mg/kg dose through intraperitoneal route. The mice received infective inoculum containing 1×10^5 parasites on day 0 and then received four doses of test compound on day 0-3 once daily. Five infected mice were used for each molecule and five infected mice were kept as untreated control. Arteether (5 mg/kg, ×4, intramuscular) was used as positive control. Thin blood smear from tail blood of each mouse was prepared on day 4. The blood smears were fixed in methanol, stained with Giemsa's stain and examined under the light microscope (100×oil immersion). At least 10-15 fields per smear were scanned to obtain percent parasitaemia in treated as well as untreated mice. If significant suppression in percent parasitaemia is observed on day 4, the monitoring continues up to day 28.

For data set [5], the system named is Plasmodium falciparum D(6) clone. As to conditions: J Nat Prod. 2004, 67(1), 88-90; read-out: IC(50) against Plasmodium falciparum D(6) clone; cited from earlier work.
Data set [6] has as its system P. falciparum W(2) clone. As to conditions: J Nat Prod. 2004, 67(1), 88-90; read-out: IC(50) against P. falciparum W(2) clone; cited from earlier work.
The test system of data set [7] is multidrug resistant human nasopharyngeal carcinoma (KB). As to conditions: when used with vincristine; Bioorg. Med. Chem. Lett. 2012, 22 (24), 7726-7729; cited from earlier work.

Where “and” joins values, the source holds several entries; their conditions need not be identical. Identical values can stand only once. Like-named read-outs stand apart in the source and are kept apart here.

For the compound `COc1ccc([C@@H](CNC(=O)/C=C/c2ccccc2)OC(=O)/C=C/c2ccccc2)cc1OC` [Compound 1, (S)-2-cinnamamido-1-(3,4-dimethoxyphenyl)ethyl cinnamate], the melting point was 132 to 135 °C. For the same compound, the IC50 in data set [1] (3D7, range given for listed compounds, read-out: IC50 values against 3D7 culture) is 2 to 7 µM. Moreover, the IC50 in data set [1] (P. falciparum 3D7, 72 hours incubation, read-out: IC50 against 3D7) turned out to be 3.9 µM. The IC50 in data set [2] (K1, range given for listed compounds, read-out: IC50 values against K1 culture) fell in the range of 1.5 to 4 µM. Further, the IC50 in data set [2] (P. falciparum K1, 72 hours incubation, read-out: IC50 against K1) was determined as 2.56 µM. The same compound returned a CC50 at 72 h in data set [3] of 80.7 µM. Also, the “% parasitaemia on day 4 in 5 individual mice” value in data set [4] is 09.50% and 13.76% and 11.93% and 11.72% and 13.20%. Further, the IC50 in data set [5] is 2.04 µM. Further, the IC50 in data set [6] is 3.06 µM.
In the case of `COc1cc(C(=O)OCC(OC(=O)c2cc(OC)c(OC)c(OC)c2)c2cc(OC)c(OC)c(OC)c2)cc(OC)c1OC` (stereo not shown) [bis-trimethoxybenzoyl derivative], the “chemoreversal activity, fold more active than verapamil” value in data set [7] was 340 fold.

The melting point is the temperature of the solid-liquid transition.
